“Also recorded” adds a separate entry of the source.
Key:
[1] = target: T1, recombinant human estradiol receptor (rhER) alpha (Homo sapiens, UniProt P03372); experiment: Competitive estradiol binding assay, displacement of [3H]estradiol, rhER alpha; details: up to highest concentration 2.5×E-4 M
T1 sequence (P03372 1-595): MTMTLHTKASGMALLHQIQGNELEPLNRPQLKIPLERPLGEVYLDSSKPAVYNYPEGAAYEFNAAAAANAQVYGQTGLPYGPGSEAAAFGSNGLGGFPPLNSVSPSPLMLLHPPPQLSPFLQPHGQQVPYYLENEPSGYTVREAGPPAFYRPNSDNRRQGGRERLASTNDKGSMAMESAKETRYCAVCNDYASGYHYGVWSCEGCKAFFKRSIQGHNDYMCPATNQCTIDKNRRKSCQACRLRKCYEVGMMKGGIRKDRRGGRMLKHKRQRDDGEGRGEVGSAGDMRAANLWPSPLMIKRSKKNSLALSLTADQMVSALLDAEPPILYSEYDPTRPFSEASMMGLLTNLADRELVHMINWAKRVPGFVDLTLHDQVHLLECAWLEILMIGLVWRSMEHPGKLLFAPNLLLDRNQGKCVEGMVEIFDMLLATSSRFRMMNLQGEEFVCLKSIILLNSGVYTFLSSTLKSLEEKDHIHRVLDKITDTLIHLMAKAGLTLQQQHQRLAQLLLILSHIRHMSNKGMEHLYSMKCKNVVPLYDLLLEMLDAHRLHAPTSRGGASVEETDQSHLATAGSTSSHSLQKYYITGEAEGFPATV

[2] = target: recombinant human estradiol receptor (rhER) beta 1 (Homo sapiens, UniProt Q92731); experiment: Competitive estradiol binding assay, displacement of [3H]estradiol, rhER beta 1; details: up to highest concentration 2.5×E-4 M

| Structure (SMILES) | Binding to rhER alpha (in words) [1] | Binding to rhER beta (in words) [2] | Binding to rhER alpha (in words) ([1]; listed as BPA) | Binding to rhER beta (in words) ([2]; listed as BPA) |
| --- | --- | --- | --- | --- |
| CC(C)(c1ccc(O)cc1)c1ccc(OCc2ccc(COc3ccc(C(C)(C)c4ccc(O)cc4)cc3)cc2)cc1 [BPA-X-1, 4,4′-[1,4-Phenylenebis(methyleneoxy-4,1-phenylene(1-methylethylidene))]bisphenol] | no detectable binding | no detectable binding |  |  |
| CC(C)(c1ccc(O)cc1)c1ccc(O)cc1 [Control B, Bisphenol A] |  |  | bind to both receptors; also recorded: very low level of binding | bind to both receptors; also recorded: very low level of binding |
| CC(C)(c1ccccc1)c1ccc(O)cc1 [Control C, p-Cumyl Phenol] | very low level of binding | very low level of binding |  |  |
